# Patent US10688093B2, “Methods, compositions, and uses of novel Fyn kinase inhibitors” (priority 2015, dated 2020)
# Biological target: full-length recombinant human FYN A (Homo sapiens (Human), UniProt P06241)
# Experiment: ADP-Glo Kinase Assay of FYN kinase inhibition
# Assay type: biochemical
# Conditions: secondary screen, re-synthesized and expanded compounds
# Procedure, shortened: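 ADP-Glo read-out of peptide phosphorylation after 90 min RT with 12.5 pmol ATP and 100 pg 12-mer substrate. Enzyme was N-GST full-length human FYN A from insect cells, 3 pg, pre-incubated 30 min with compound, 10 points from 10 μM top, 3-fold steps; IC50 from curve.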
# Sequence of full-length recombinant human FYN A (P06241 whole entry): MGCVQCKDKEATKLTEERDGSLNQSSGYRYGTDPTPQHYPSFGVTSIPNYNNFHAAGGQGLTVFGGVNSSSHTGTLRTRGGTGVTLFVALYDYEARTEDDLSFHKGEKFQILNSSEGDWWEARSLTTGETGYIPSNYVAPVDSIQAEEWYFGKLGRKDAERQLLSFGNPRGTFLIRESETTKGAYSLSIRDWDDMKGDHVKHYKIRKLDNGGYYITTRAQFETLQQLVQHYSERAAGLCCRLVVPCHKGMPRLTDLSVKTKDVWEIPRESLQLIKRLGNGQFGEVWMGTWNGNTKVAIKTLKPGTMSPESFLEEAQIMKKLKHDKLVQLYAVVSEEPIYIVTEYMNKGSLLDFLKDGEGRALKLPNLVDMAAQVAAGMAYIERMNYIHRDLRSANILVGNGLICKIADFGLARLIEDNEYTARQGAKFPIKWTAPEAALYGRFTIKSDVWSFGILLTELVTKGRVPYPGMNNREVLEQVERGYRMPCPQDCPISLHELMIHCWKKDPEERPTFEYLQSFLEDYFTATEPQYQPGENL
row,Structure (SMILES),IC50
1,"CCCNc1ccc2ncc(-c3ccncc3)n2n1 [BF000147056, N-propyl-3-(4-pyridyl)-imidazo[1,2-b]pyridazin-6-amine]",217 nM
2,"CCCNc1ccc2ncc(-c3cccc(O)c3)n2n1 [BF000147075, 3-[6-(propylamino)-imidazo[1,2-b]pyridazin-3-yl]phenol]",592 nM
3,"CCCNc1ccc2ncc(-c3cccc(C(C)=O)c3)n2n1 [BF000147088, 1-[3-[6-(propyl-amino)-imidazo[1,2-b]pyridazin-3-yl]phenyl]-ethanone]",406 nM
4,"CC(=O)c1cccc(-c2cnc3ccc(NCc4ccc5c(c4)OCO5)nn23)c1 [BF000147140, 1-[3-[6-(1,3-benzodioxol-5-ylmethyl-amino)-imidazo[1,2-b]pyridazin-3-yl]phenyl]-ethanone]",3190 nM
5,COc1cc(-c2cnc3ccc(NC4CCOCC4)nn23)ccc1O [BF000147168],113 nM
6,"COc1cc(-c2cnc3ccc(NC4CCOCC4)nn23)cc(OC)c1OC [BF000147394, N-tetrahydro-pyran-4-yl-3-(3,4,5-trimethoxy-phenyl)-imidazo[1,2-b]pyridazin-6-amine]",503 nM
7,"CN(C)C(=O)c1cccc(-c2cn3c(-c4ccc(O)cc4)cnc3cn2)c1 [BF000333343, 3-[3-(4-hydroxy-phenyl)-imidazo[1,2-a]pyrazin-6-yl]-N,N-dimethyl-benzamide]",871 nM
8,"CN(C)CCCNC(=O)c1ccc(-c2cn3c(-c4ccc(O)cc4)cnc3cn2)cc1 [BF000333874, N-[3-(dimethyl-amino)-propyl]-4-[3-(4-hydroxy-phenyl)-imidazo[1,2-a]pyrazin-6-yl]-benzamide]",705 nM
9,"CN1CCN(c2ccc(-c3cn4c(-c5ccc(O)cc5)cnc4cn3)cc2)CC1 [BF000333878, 4-[6-[4-(4-methyl-piperazin-1-yl)phenyl]-imidazo[1,2-a]pyrazin-3-yl]phenol]",465 nM
10,"CN(C)CCNC(=O)c1ccc(-c2cn3c(-c4ccc(O)cc4)cnc3cn2)cc1 [BF000333881, N-[2-(dimethyl-amino)-ethyl]-4-[3-(4-hydroxy-phenyl)-imidazo[1,2-a]pyrazin-6-yl]-benzamide]",486 nM
11,"O=C(NCCO)c1ccc(-c2cn3c(-c4ccc(O)cc4)cnc3cn2)cc1 [BF000333882, N-(2-hydroxy-ethyl)-4-[3-(4-hydroxy-phenyl)-imidazo[1,2-a]pyrazin-6-yl]benzamide]",740 nM
12,"COc1cc(-c2cnc3cnc(-c4ccc(C(=O)NCCCN(C)C)cc4)cn23)ccc1O [BF000334019, N-[3-(dimethyl-amino)-propyl]-4-[3-(4-hydroxy-3-methoxy-phenyl)-imidazo[1,2-a]pyrazin-6-yl]benzamide]",647 nM
13,"COc1cc(-c2cnc3cnc(-c4cccc(C(=O)NCCO)c4)cn23)ccc1O [BF000334020, N-(2-hydroxy-ethyl)-3-[3-(4-hydroxy-3-methoxy-phenyl)-imidazo[1,2-a]pyrazin-6-yl]benzamide]",1280 nM
14,"COc1cc(-c2cnc3cnc(-c4ccc(C(=O)NCCN(C)C)cc4)cn23)ccc1O [BF000334023, N-[2-(dimethyl-amino)ethyl]-4-[3-(4-hydroxy-3-methoxy-phenyl)-imidazo[1,2-a]pyrazin-6-yl]benzamide]",337 nM
15,"CN(C)CCNC(=O)c1ccc(-c2cn3c(-c4ccc(Oc5ccccc5)cc4)cnc3cn2)cc1 [BF000334031, N-[2-(dimethyl-amino)ethyl]-4-[3-(4-phenoxy-phenyl)-imidazo[1,2-a]pyrazin-6-yl]-benzamide]",222 nM
16,"O=C(NCCO)c1ccc(-c2cn3c(-c4ccc(Oc5ccccc5)cc4)cnc3cn2)cc1 [BF000334032, N-(2-hydroxy-ethyl)-4-[3-(4-phenoxy-phenyl)-imidazo-[1,2-a]-pyrazin-6-yl]benzamide]",464 nM
17,"c1ccc(CNc2nn3c(-c4cccnc4)cnc3s2)cc1 [BF000714845, N-benzyl-5-(3-pyridyl)-imidazo[2,1-b][1,3,4]-thiadiazol-2-amine]",634 nM
18,"CN(C)C(=O)c1cccc(-c2cnc3sc(NCc4ccccc4)nn23)c1 [BF000714847, 3-[2-(benzyl-amino)-imidazo[2,1-b][1,3,4]-thiadiazol-5-yl]-N,N-dimethyl-benzamide]",1230 nM
19,"COc1cncc(-c2cnc3sc(NCc4ccccc4)nn23)c1 [BF000714862, N-benzyl-5-(5-methoxy-3-pyridyl)-imidazo[2,1-b][1,3,4]-thiadiazol-2-amine]",217 nM
20,"COc1cncc(-c2cnc3sc(NCC4CCOCC4)nn23)c1 [BF000714923, 5-(5-methoxy-3-pyridyl)-N-(tetra-hydropyran-4-ylmethyl)-imidazo[2,1-b][1,3,4]-thiadiazol-2-amine]",293 nM

# Results, then the molecule that gave them:
row,IC50,Structure (SMILES)
1,721 nM,"COc1ccc(-c2cnc3ccc(NCc4cccs4)nn23)cc1OC [BF000146992, 3-(3,4-dimetboxy-phenyl)-N-(2-thienyl-methyl)-imidazo[1,2-b]pyridazin-6-amine]"
2,285 nM,"CCCNc1ccc2ncc(-c3ccc(OC)c(OC)c3)n2n1 [BF000147061, 3-(3,4-dimethoxy-phenyl)-N-propyl-imidazo[1,2-b]pyridazin-6-amine]"
3,81.6 nM,"CCCNc1ccc2ncc(-c3ccc(O)c(OC)c3)n2n1 [BF000147080, 2-methoxy-4-[6-(propyl-amino)-imidazo[1,2-b]pyridazin-3-yl]phenol]"
4,494 nM,"COc1ccc(-c2cnc3ccc(NCc4ccccn4)nn23)cc1OC [BF000147233, 3-(3,4-dimethoxy-phenyl)-N-(2-pyridyl-methyl)-imidazo[1,2-b]pyridazin-6-amine]"
5,1310 nM,"COc1cc(-c2cc(-c3ccccc3)cnc2N)cc(OC)c1OC [BF000312489, 5-phenyl-3-(3,4,5-trimethoxy-phenyl)-pyridin-2-amine]"
6,232 nM,"COc1cc(-c2cc(-c3ccc(N4CCN(C)CC4)cc3)cnc2N)cc(OC)c1OC [BF000312520, 5-[4-(4-methyl-piperazin-1-yl)phenyl]-3-(3,4,5-trimethoxy-phenyl)-pyridin-2-amine]"
7,709 nM,"COc1cc(-c2cc(-c3ccc(OCCCN(C)C)nc3)cnc2N)cc(OC)c1OC [BF000312521, 5-[6-(3-(dimethyl-amino)-propoxy]-3-pyridyl]-3-(3,4,5-trimethoxy-phenyl)-pyridin-2-amine]"
8,526 nM,"COc1cc(-c2cc(-c3cccc(O)c3)cnc2N)cc(OC)c1OC [BF000312527, 3-[6-amino-5-(3,4,5-trimethoxy-phenyl)-3-pyridyl]-phenol]"
9,494 nM,"COc1cc(-c2cc(-c3cccc(C(N)=O)c3)cnc2N)cc(OC)c1OC [BF000312539, 3-[6-amino-5-(3,4,5-trimethoxy-phenyl)-3-pyridyl]-benzamide]"
10,458 nM,"COc1cc(-c2cc(-c3ccc(C(N)=O)cc3)cnc2N)cc(OC)c1OC [BF000312540, 4-[6-amino-5-(3,4,5-trimethoxy-phenyl)-3-pyridyl]-benzamide]"
11,377 nM,"COc1cc(-c2cc(-c3ccc(C(=O)NC4CC4)cc3)cnc2N)cc(OC)c1OC [BF000312541, 4-[6-amino-5-(3,4,5-trimethoxy-phenyl)-3-pyridyl]-N-cyclopropyl-benzamide]"
12,1000 nM,"COc1cc(-c2cc(-c3cccc(C(=O)NCCO)c3)cnc2N)cc(OC)c1OC [BF000312542, 3-[6-amino-5-(3,4,5-trimethoxy-phenyl)-3-pyridyl]-N-(2-hydroxy-ethyl)-benzamide]"
13,674 nM,"COc1cc(-c2cc(-c3ccc(S(C)(=O)=O)cc3)cnc2N)cc(OC)c1OC [BF000312544, 5-(4-methyl-sulfonyl-phenyl)-3-(3,4,5-trimethoxy-phenyl)-pyridin-2-amine]"
14,562 nM,"COc1cc(-c2cc(-c3cccc(NS(C)(=O)=O)c3)cnc2N)cc(OC)c1OC [BF000312545, N-[3-[6-amino-5-(3,4,5-trimethoxy-phenyl)-3-pyridyl]-phenyl]-methane-sulfonamide]"
15,121 nM,"COc1cc(-c2cc(-c3ccc(N4CCN(C)CC4)cc3)cnc2N)ccc1O [BF000313028, 4-[2-amino-5-[4-(4-methylpiperazin-1-yl)phenyl]-3-pyridyl]-2-methoxy-phenol]"
16,116 nM,"COc1cc(-c2cc(-c3cc(OC)c(OC)c(OC)c3)cnc2N)ccc1O [BF000313035, 4-[2-amino-5-(3,4,5-trimethoxy-phenyl)-3-pyridyl]-2-methoxy-phenol]"
17,214 nM,"COc1cc(-c2cc(-c3ccc(C(N)=O)cc3)cnc2N)ccc1O [BF000313038, 4-[6-amino-5-(4-hydroxy-3-methoxy-phenyl)-3-pyridyl]-benzamide]"
18,316 nM,"COc1cc(-c2cc(-c3ccc(S(C)(=O)=O)cc3)cnc2N)ccc1O [BF000313040, 4-[2-amino-5-(4-methyl-sulfolyl-phenyl)-3-pyridyl]-2-methoxy-phenol]"
19,288 nM,"COc1cc(-c2cnc(N)c(-c3ccc(O)cc3)c2)cc(OC)c1OC [BF000313556, 4-[2-amino-5-(3,4,5-trimethoxy-phenyl)-3-pyridyl]-phenol]"
20,1090 nM,"NC(=O)c1ccc(-c2cnc(N)c(-c3ccc(O)cc3)c2)cc1 [BF000313559, 4-[6-amino-5-(4-hydroxy-phenyl)-3-pyridyl]-benzamide]"
21,898 nM,"CC(=O)Nc1cccc(-c2cnc(N)c(-c3ccc(O)cc3)c2)c1 [BF000313562, N-[3-[6-amino-5-(4-hydroxy-phenyl)-3-pyridyl]-phenyl]-acetamide]"
22,1550 nM,"CS(=O)(=O)c1ccc(-c2cnc(N)c(-c3ccc(O)cc3)c2)cc1 [BF000313563, 4-[2-amino-5-(4-methyl-sulfonyl-phenyl)-3-pyridyl)-phenol]"
23,624 nM,"COc1cc(-c2cnc3cnc(-c4cnn(C)c4)cn23)ccc1O [BF000333452, 2-methoxy-4-[6-(1-methyl-pyrazol-4-yl)-imidazo[1,2-a]pyrazin-3-yl]phenol]"
24,60.9 nM,"COc1cc(-c2cc(-c3ccc(N4CCNCC4)cc3)cnc2N)ccc1O [BF000707279, 4-[2-amino-5-(4-piperazin-1-ylphenyl)-3-pyridyl]-2-methoxy-phenol]"
25,521 nM,"CN1CCN(c2ccc(-c3cnc(N)c(-c4ccc(O)cc4)c3)cc2)CC1 [BF000710044, 4-[2-amino-5-[4-(4-methyl-piperazin-1-yl)phenyl]-3-pyridyl]-phenol]"
